Source: patent US20120010177A1, “MicroRNA Modulators and Method for Identifying And Using The Same” (The Wistar Institute / North Carolina State University, priority 2008, published 2012)
Read-outs that look alike come from different tables or passages of the source.

System: miR-21
Assay: High throughput primary miR-21 FLuc reporter assay (concentration-response)
Type: cell-based, human
Settings: HeLa Luc-miR-21 reporter, 48-hour incubation; for AC50: read-out: AC50; for Curve Class: four parameter logistic fit
Experimental: Primary miR-21 Assay. The primary miR-21 FLuc reporter assay is carried out with HeLa cells expressing the Luc-miR-21 reporter using a 48-hour incubation time. Active compounds that increase the luciferase response are identified based upon inhibition of miR-21.
SAR. The concentration-response data for the entire high throughput screen is plotted and modeled by a four parameter logistic fit and SAR analysis is performed according to conventional approaches (Iglese, et al. (2006) Proc. Natl. Acad. Sci. USA […]:11473-8). In brief, Class 1.1 and 1.2 are full curves containing upper and lower asymptotes with efficacy ≧80% and <80%, respectively. Class 2.1 and 2.2 are incomplete curves having only one asymptote with efficacy ≧80% and <80%, respectively. Class 3 curves show activity at only the highest concentration or are poorly fit. […] For SAR analysis, compounds associated with Class 1 and 2.1 curves are clustered using LEADSCOPE® fingerprints. […] Compounds sharing a common scaffold form a series. Candidate series and singletons are chosen for follow up studies. For each lead or series, an appropriate library design method (e.g., point substitution library or matrix library) is selected. Typically, precursors are synthesized and a library of 15-25 compounds is produced for analysis in the above-described assays.

SMILES	AC50 (Homo sapiens, HeLa, 48 h) [µM]	further results
CCC(=O)Nc1ccc(NC(=O)C23CC4CC(CC(C4)C2)C3)cn1 [Compound 98]	16.5	–
CCCC(=O)Nc1ccc(NC(=O)C23CC4CC(CC(C4)C2)C3)cn1 [Compound 99]	18.5	–
COCC(=O)Nc1c(C(=O)Nc2ccc3c(c2)OCCO3)oc2ccccc12 [Compound 100]	0.66	–
COc1ccc(NC(=O)c2ncn(-c3ccccc3)n2)cc1Cl [Compound 101]	9.27	–
COc1ccc(NC(=O)c2nnn(CC(=O)Nc3cccc(C)c3C)c2N)c(OC)c1 [Compound 102]	13.1	–
COc1ccc(NC(=O)c2sc3nc[nH]c(=O)c3c2C)cc1Cl [Compound 103]	16.5	–
COc1ccc(NC(=O)c2ccccc2NC(=O)c2ccccc2C(=O)O)c(OC)c1 [Compound 104]	18.5	–
NC(=O)c1ccccc1NC(=O)c1ccc(-c2ccc(Br)cc2)o1 [Compound 105]	1.17	–
O=C(Nc1nnc(S(=O)(=O)N2CCCC2)s1)c1ccc(F)cc1 [Compound 106]	3.69	–
O=C(Nc1ccccc1OC(=O)c1ccc(Cl)cc1)c1ccc(Cl)cc1 [Compound 107]	11.7	–
Cn1nnc2cc(C(=O)Nc3ccccc3F)ccc21 [Compound 108]	14.7	–
O=C(Nc1ccc2nn(-c3ccccc3)nc2c1)c1ccc(-c2cccc(Cl)c2)o1 [Compound 109]	18.5	–
Cc1ccc(-c2cc(C(=O)NCCc3ccccc3)c3c(-c4ccc(C)cc4)[nH]nc3c2)cc1 [Compound 110]	9.26	–
Cc1ccc(NC(=O)Cc2noc3ccccc23)nc1 [Compound 111]	16.5	–
O=C(Nc1ccc2nc3n(c(=O)c2c1)CCCCC3)c1ccccc1Cl [Compound 112]	6.56	–
Nc1cc(N)nc(SCC(=O)Nc2ccc(Br)cc2Cl)n1 [Compound 113]	11.7	–
Cc1cccc(NC(=O)C2Cc3ccccc3O/C2=N/O)c1 (centres unmarked) [Compound 114]	10.4	–
COc1ccc(C(Nc2ccccn2)c2c(NC(=O)c3ccco3)sc(C)c2C)cc1OC (centres unmarked) [Compound 115]	16.5	–
CN1CCN(NC(=O)Nc2ccc(Br)cc2Cl)CC1 [Compound 116]	13.1	–
COc1ccc(C(=O)NCCC2=CCCCC2)cc1OC1CCN(C(C)C)CC1 [Compound 117]	16.5	–
COC(=O)/C(=C/c1cccc([N+](=O)[O-])c1)NC(=O)c1ccc(OC)cc1 [Compound 119]	10.4	–

SMILES	AC50 (Homo sapiens, HeLa, 48 h) [µM]	further results
CCCC(=O)N(CCN1CCOCC1)c1nc2cc(C)c(C)cc2s1 [Compound 120]	7.36	–
N#CC1Cc2cc3c(cc2N=C1SCC(=O)N1CCOCC1)OCO3 (centres unmarked) [Compound 121]	0.66	–
O=C(CSc1nnc(-c2ccc(Cl)cc2)o1)Nc1ccc(F)cc1 [Compound 122]	1.04	–
O=C(CSc1nnc(-c2ccc(O)cc2)o1)Nc1ccccc1Br [Compound 123]	1.31	–
O=C(CSc1nnc(-c2ccccn2)o1)Nc1cccc(Cl)c1 [Compound 124]	1.85	–
COc1ccc(NC(=O)CSc2nc(SC)ns2)c(OC)c1 [Compound 125]	2.07	–
CC(C)(C)c1ccc(-c2nc(NC(=O)CSc3ccc4ccccc4n3)ns2)cc1 [Compound 126]	2.33	–
Cc1c(-c2nnc(SCC(=O)Nc3ccccc3F)o2)nnn1-c1ccc(F)cc1 [Compound 127]	2.93	–
Cc1cc(C)c(C#N)c(SCC(=O)Nc2ccc3c(c2)OCO3)n1 [Compound 128]	3.29	–
Cc1cc(C(F)(F)F)c(C#N)c(SCC(=O)Nc2nc3cc(Br)ccc3s2)n1 [Compound 129]	3.69	–
C#Cc1cccc(NC(=O)CSc2nnc(-c3ccc(C(F)(F)F)cn3)o2)c1 [Compound 130]	4.14	–
CSc1nsc(SCC(=O)Nc2ccc(F)cc2F)n1 [Compound 131]	4.14	–
O=C(CSc1nnc(-c2ccc(C(F)(F)F)cn2)o1)Nc1cccc(Cl)c1 [Compound 132]	4.14	–
Cc1cc(NC(=O)CSc2nc3ccsc3c(=O)n2NC(=O)c2ccccc2)no1 [Compound 133]	5.21	–
Cc1cccc(-c2nnc(SCC(=O)Nc3ccc(C)c(C)c3)o2)c1 [Compound 134]	5.85	–
CC(C)c1ccc2nc(SCC(=O)NCC3CCCO3)c(C#N)cc2c1 (centres unmarked) [Compound 135, CC(C)C1═C/C═C2/N═C(SCC(═O)NCC3CCCO3)\C(═C/C\2═C\1)C#N]	–	Efficacy: −60.74; Curve Class: −2.2; AC50: 5.85 µM
N#CC1=C(SCC(=O)Nc2ccccc2)NC(=O)CC1c1ccc(O)cc1 (centres unmarked) [Compound 136]	6.56	–
COc1ccc(NC(=O)CSc2nnc(-c3cccs3)o2)cc1 [Compound 137]	6.56	–
CC(C)(C)c1ccc(NC(=O)CSc2nnc(-c3[nH]nc4ccccc34)o2)cc1 [Compound 138]	6.56	–
COc1cccc(NC(=O)CSc2nnc(-c3cccs3)o2)c1 [Compound 139]	6.56	–
Cc1ccc(SCC(=O)Nc2ccc3oc(-c4ccc(F)cc4)nc3c2)cc1 [Compound 140]	7.36	–

SMILES	AC50 (Homo sapiens, HeLa, 48 h) [µM]	further results
Cc1ccc(NC(=O)CSc2nnc(-c3cccs3)o2)cc1S(=O)(=O)N(C)C [Compound 141]	8.26	–
O=C(CSc1nnc(-c2ccccn2)o1)Nc1ccccc1C(F)(F)F [Compound 142]	9.27	–
CN(C(=O)CSc1nnc(-c2ccccc2F)o1)C1CCCCC1 [Compound 143]	9.27	–
COc1cc2cc(C#N)c(SCC(=O)N3CCOCC3)nc2cc1OC [Compound 144]	11.7	–
COCc1cc(C)nc(SCC(=O)Nc2ccc3c(c2)OCCO3)c1C#N [Compound 145]	11.7	–
CCC(=O)Oc1ccc(NC(=O)CSCc2ccccc2)cc1 [Compound 146]	11.7	–
Cc1ccc(-c2csc(NC(=O)CSc3nc4ccccc4o3)n2)cc1 [Compound 147]	11.7	–
Cc1cccc(-c2nsc(SCC(=O)Nc3ccc4c(c3)OCO4)n2)c1 [Compound 148]	13.1	–
O=C(CSc1nnc(-c2cccnc2)o1)Nc1cccc(Cl)c1 [Compound 149]	13.1	–
CSc1nsc(SCC(=O)N2CCCCC2)n1 [Compound 150]	13.1	–
COc1ccc(-c2nnc(SCC(=O)Nc3cccc(C)c3)s2)cc1 [Compound 151]	13.1	–
O=C(CSc1ccccc1)NCCc1ccccc1 [Compound 152]	14.7	–
COc1ccccc1NC(=O)CSc1nnc(-c2ccccn2)o1 [Compound 153]	14.7	–
Nc1[nH]cnc2nc(SCC(=O)Nc3ccccc3F)nc1-2 [Compound 154, N\C1═C2/N═C(SCC(═O)NC3═C/C═C\C═C\3F)\N═C\2\N═C/N1]	–	Efficacy: −64.80; Curve Class: −2.2; AC50: 14.7 µM
CCN(CC)C(=O)CS/C(=N/C#N)Nc1ccccc1F [Compound 155]	14.7	–
Cc1cc(C)c(C#N)c(SCC(=O)Nc2nonc2N)n1 [Compound 156]	14.7	–
Cc1cc(C)cc(NC(=O)CSc2nnc(-c3ccccc3C)o2)c1 [Compound 157]	14.7	–
CSc1nsc(SCC(=O)Nc2ccccc2F)n1 [Compound 158]	14.7	–
Cc1ccc(-c2nnc(SCC(=O)Nc3nccs3)n2N)cc1 [Compound 159]	16.5	–
CCOC(=O)N1CCN(C(=O)CSCc2ccccc2Cl)CC1 [Compound 160]	16.5	–
Cc1ccc(-c2nsc(SCC(=O)Nc3ccc4c(c3)OCO4)n2)cc1 [Compound 161]	16.5	–

SMILES	AC50 (Homo sapiens, HeLa, 48 h) [µM]	further results
CCC(C)NC(=O)CSc1ccc(Cl)cc1 (centres unmarked) [Compound 162]	18.5	–
CCOc1ccc(NC(=O)CSc2ccc3ccccc3n2)cc1 [Compound 163]	18.5	–
O=C(CSc1nnc(-c2ccc(Br)cc2)o1)Nc1cccc2ccccc12 [Compound 164]	18.5	–
COc1ccc(OCC(=O)Nc2ccc(-c3nc4cc(C)c(C)cc4o3)cc2)cc1 [Compound 165]	0.13	–
O=C(COc1ccccc1F)Nc1ccc(-c2nc3ccccc3s2)cc1 [Compound 166]	1.47	–
COc1ccc(OCC(=O)Nc2ccc(-c3nc4cc(Cl)ccc4o3)cc2)cc1 [Compound 167]	2.93	–
Cc1cccc(OCC(=O)Nc2sc3c(c2C#N)CCC3)c1 [Compound 168]	6.56	–
Cc1ccc(OCC(=O)N(Cc2ccco2)c2ccccn2)cc1 [Compound 169]	14.7	–
CCCNC(=O)COCc1cc(-c2ccc(F)cc2)on1 [Compound 170]	16.5	–
CCn1c2ccccc2c2cc(NC(=O)COC(=O)Cc3cn4ccsc4n3)ccc21 [Compound 171]	16.5	–
O=C(COc1ccccc1[N+](=O)[O-])N/N=C/c1ccc(O)cc1 [Compound 172]	11.7	–
O=C(COc1ccccc1[N+](=O)[O-])N/N=C/c1cccc(OC(=O)c2ccc3c(c2)OCO3)c1 [Compound 173]	18.5	–
CC(=O)Nc1ccc(NC(=O)COc2ccc(Cl)cc2Cl)cc1 [Compound 175]	14.7	–
COCC(=O)Nc1nnc(C2CCCCC2)s1 [Compound 176]	16.5	–
COc1ccc(-c2csc(NC(=O)COC(=O)c3ccc(Br)o3)n2)cc1 [Compound 177]	2.93	–
COCC(=O)Nc1ccc(C(=O)Nc2ccccc2Cl)cc1 [Compound 178]	11.7	–
CC(C)c1nnc(NC(=O)COc2ccccc2[N+](=O)[O-])s1 [Compound 179]	9.27	–
Cc1cc(CC(C)C)n(-c2nc3ccccc3c(=O)n2OCC(N)=O)n1 [Compound 180]	14.7	–
C=CCNC(=S)NNC(=O)COc1ccc2cc(Br)ccc2c1 [Compound 181]	7.36	–
